Results on one compound are retold here after ChEMBL document CHEMBL1144129, “Isolation of xestosterol esters of brominated acetylenic fatty acids from the marine sponge xestospongia testudinaria” (J Nat Prod, 1999).

This experiment addresses T1, Adenosine receptor A1 (Rattus norvegicus, UniProt P25099).
T1 sequence (P25099 whole entry): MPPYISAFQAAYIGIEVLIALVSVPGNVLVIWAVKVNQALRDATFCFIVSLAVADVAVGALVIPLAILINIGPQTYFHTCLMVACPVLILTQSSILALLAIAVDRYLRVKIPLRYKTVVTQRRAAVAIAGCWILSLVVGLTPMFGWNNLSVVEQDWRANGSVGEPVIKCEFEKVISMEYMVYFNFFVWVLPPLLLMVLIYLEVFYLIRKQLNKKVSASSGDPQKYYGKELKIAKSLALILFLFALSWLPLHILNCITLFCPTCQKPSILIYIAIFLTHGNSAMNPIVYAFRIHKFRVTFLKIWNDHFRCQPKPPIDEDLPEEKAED
As to the kind of experiment: Displacement of [3H]DPCPX from rat brain adenosine A1 receptor. A general note: Loss of bound radioactivity is the signal in a displacement assay; it reports binding, not function.

Each structure is given as a SMILES string.

One may read the IC50 as the concentration needed to halve the response being measured. Lower therefore signals greater potency in that assay. `O=C(O)CCCCCC#C/C=C/CCCCC#C/C=C/Br` returned a concentration for half-maximal inhibition (IC50) of 106 µM.
